Test system: Mitochondria-located protein genes
Test: DNA chip mRNA expression in yeast, mitochondria-located protein genes (Table 2)
Format: cell-based, Saccharomyces cerevisiae S288C
Conditions: cells incubated two hours with the chemical substance
Summary of the method: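 In this screen, yeast in logarithmic growth are challenged for two hours with a toxic substance at a non-lethal inhibitory concentration. Their mRNA, converted to Cy3- or Cy5-labeled cDNA, hybridizes at 65° C. to a chip spanning every yeast gene, and expression is expressed as a ratio to untreated cells.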

Measured: The level of expressed mRNA in the presence of chemical substance/The level of expressed mRNA in the absence of chemical substance

manganese ethylenebis(dithiocarbamate) [(8)]
1.1: yeast gene YBR044C | yeast gene YBR185C | yeast gene YDL067C | yeast gene YDL198C | yeast gene YEL039C | yeast gene YKL194C | yeast gene YMR083W | yeast gene YOR150W | yeast gene YPL040C | yeast gene YPL215W | yeast gene YPR037C
2.3: yeast gene YKL142W
1.0: yeast gene YEL024W | yeast gene YIL155C | yeast gene YJL180C | yeast gene YLR395C | yeast gene YNL073W | yeast gene YOL096C | yeast gene YOR100C | yeast gene YOR176W | yeast gene YPL135W | yeast gene YPL262W
0.6: yeast gene YDL181W | yeast gene YLR304C
1.6: yeast gene YBL038W | yeast gene YGL191W | yeast gene YGR174C | yeast gene YKL016C
1.4: yeast gene YBR282W | yeast gene YGR028W | yeast gene YJL166W | yeast gene YLR038C | yeast gene YMR023C | yeast gene YMR035W | yeast gene YPR134W
1.9: yeast gene YDR258C | yeast gene YGR008C | yeast gene YGR076C
0.8: yeast gene YBL030C | yeast gene YBL099W | yeast gene YBR221C | yeast gene YER178W | yeast gene YGL018C | yeast gene YGR062C | yeast gene YGR082W | yeast gene YJR045C | yeast gene YJR077C | yeast gene YKL141W | yeast gene YKL148C | yeast gene YLL041C | yeast gene YLR259C | yeast gene YMR152W | yeast gene YOR130C | yeast gene YOR142W | yeast gene YOR316C
1.5: yeast gene YBR091C | yeast gene YCR083W | yeast gene YML054C | yeast gene YMR267W | yeast gene YOR037W
0.7: yeast gene YFL016C | yeast gene YGL187C | yeast gene YJR121W | yeast gene YKR066C | yeast gene YMR203W | yeast gene YNL055C | yeast gene YOR187W | yeast gene YPR024W
0.4: yeast gene YBL022C
0.9: yeast gene YBR003W | yeast gene YCR046C | yeast gene YDR178W | yeast gene YHR008C | yeast gene YJL102W | yeast gene YJL133W | yeast gene YLR348C | yeast gene YML120C | yeast gene YNL071W | yeast gene YNL104C | yeast gene YNL256W
2.6: yeast gene YDR079W
1.7: yeast gene YOR020C
1.2: yeast gene YAL039C | yeast gene YDR298C | yeast gene YDR347W | yeast gene YKL003C | yeast gene YKL170W | yeast gene YLR295C | yeast gene YML129C | yeast gene YPR047W
1.3: yeast gene YBR122C | yeast gene YBR251W | yeast gene YDR231C | yeast gene YDR377W | yeast gene YDR529C | yeast gene YJL096W | yeast gene YMR089C | yeast gene YPL134C
1.8: yeast gene YCL057W | yeast gene YGR244C
